Assay in all cases: Ambit kinase profiling, competition binding
In one assay the target is T1, ERK8 (Homo sapiens, UniProt Q8TD08).
T1 construct: purchased Ambit Biosciences (KINOMEscan)
T1 sequence (Q8TD08 1-544): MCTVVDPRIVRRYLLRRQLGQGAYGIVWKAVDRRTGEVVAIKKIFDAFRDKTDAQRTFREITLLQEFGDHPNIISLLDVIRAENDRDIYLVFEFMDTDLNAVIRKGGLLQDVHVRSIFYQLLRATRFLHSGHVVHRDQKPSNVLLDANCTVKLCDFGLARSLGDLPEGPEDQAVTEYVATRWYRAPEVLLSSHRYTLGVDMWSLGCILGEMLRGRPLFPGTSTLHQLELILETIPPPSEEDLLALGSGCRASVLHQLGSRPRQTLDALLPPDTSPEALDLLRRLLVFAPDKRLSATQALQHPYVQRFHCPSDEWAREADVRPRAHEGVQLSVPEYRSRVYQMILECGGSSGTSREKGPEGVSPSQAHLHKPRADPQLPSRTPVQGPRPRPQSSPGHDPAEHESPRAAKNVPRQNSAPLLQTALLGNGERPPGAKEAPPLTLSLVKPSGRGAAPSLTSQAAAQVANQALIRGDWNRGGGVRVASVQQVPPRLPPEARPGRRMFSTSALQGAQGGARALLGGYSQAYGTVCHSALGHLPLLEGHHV
On the procedure:
(§1) Also included in the kinase profile are four isoforms of PKC (δ, ε, η, θ) and eight isoforms of CAMKs (CAMKIα, δ, γ; CAMKIIα, β, δ, γ; CAMK4).
(§2) The global kinase profiling experiment was performed by Ambit Biosciences.

The next assay addresses T2, EGFR(G719C) (Homo sapiens, UniProt P00533, G719C).
T2 construct: purchased Ambit Biosciences (KINOMEscan)
To be noted: for % Competition: 10 µM. On the procedure:
as §1, §2

The target of another assay is T3, AURKC (Homo sapiens, UniProt Q9UQB9).
T3 construct: purchased Ambit Biosciences (KINOMEscan)
T3 sequence (Q9UQB9 1-309): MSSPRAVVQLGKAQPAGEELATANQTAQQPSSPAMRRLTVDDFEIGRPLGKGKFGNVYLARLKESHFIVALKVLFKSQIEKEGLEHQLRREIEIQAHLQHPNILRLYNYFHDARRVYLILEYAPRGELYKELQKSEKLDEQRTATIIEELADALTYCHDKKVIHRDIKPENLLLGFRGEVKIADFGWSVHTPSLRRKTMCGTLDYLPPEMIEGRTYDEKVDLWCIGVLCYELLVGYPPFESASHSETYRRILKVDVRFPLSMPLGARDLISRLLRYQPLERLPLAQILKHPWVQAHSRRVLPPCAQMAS
On the procedure: as §1, §2

For another assay, the target named is T4, SYK (Homo sapiens, UniProt P43405).
T4 construct: purchased Ambit Biosciences (KINOMEscan)
To be noted: for % Competition: 10 µM. How it is done:
as §1, §2

Another assay deals with T5, p38-gamma (Homo sapiens, UniProt P53778).
T5 construct: purchased Ambit Biosciences (KINOMEscan)
T5 sequence (P53778 1-367): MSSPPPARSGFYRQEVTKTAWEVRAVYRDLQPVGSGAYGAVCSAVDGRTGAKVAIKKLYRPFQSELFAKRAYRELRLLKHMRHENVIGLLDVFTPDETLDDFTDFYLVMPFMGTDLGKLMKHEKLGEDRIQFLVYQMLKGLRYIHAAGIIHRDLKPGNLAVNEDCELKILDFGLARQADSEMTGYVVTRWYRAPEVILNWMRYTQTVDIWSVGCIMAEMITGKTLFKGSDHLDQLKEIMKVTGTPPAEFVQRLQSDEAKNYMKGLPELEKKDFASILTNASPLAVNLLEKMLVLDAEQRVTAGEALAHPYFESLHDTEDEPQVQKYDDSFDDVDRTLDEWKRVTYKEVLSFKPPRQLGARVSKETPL
How it is done:
as §1, §2

A further assay concerns the target T6, STK36 (Homo sapiens, UniProt Q9NRP7).
T6 construct: purchased Ambit Biosciences (KINOMEscan)
T6 sequence (Q9NRP7 1-1315): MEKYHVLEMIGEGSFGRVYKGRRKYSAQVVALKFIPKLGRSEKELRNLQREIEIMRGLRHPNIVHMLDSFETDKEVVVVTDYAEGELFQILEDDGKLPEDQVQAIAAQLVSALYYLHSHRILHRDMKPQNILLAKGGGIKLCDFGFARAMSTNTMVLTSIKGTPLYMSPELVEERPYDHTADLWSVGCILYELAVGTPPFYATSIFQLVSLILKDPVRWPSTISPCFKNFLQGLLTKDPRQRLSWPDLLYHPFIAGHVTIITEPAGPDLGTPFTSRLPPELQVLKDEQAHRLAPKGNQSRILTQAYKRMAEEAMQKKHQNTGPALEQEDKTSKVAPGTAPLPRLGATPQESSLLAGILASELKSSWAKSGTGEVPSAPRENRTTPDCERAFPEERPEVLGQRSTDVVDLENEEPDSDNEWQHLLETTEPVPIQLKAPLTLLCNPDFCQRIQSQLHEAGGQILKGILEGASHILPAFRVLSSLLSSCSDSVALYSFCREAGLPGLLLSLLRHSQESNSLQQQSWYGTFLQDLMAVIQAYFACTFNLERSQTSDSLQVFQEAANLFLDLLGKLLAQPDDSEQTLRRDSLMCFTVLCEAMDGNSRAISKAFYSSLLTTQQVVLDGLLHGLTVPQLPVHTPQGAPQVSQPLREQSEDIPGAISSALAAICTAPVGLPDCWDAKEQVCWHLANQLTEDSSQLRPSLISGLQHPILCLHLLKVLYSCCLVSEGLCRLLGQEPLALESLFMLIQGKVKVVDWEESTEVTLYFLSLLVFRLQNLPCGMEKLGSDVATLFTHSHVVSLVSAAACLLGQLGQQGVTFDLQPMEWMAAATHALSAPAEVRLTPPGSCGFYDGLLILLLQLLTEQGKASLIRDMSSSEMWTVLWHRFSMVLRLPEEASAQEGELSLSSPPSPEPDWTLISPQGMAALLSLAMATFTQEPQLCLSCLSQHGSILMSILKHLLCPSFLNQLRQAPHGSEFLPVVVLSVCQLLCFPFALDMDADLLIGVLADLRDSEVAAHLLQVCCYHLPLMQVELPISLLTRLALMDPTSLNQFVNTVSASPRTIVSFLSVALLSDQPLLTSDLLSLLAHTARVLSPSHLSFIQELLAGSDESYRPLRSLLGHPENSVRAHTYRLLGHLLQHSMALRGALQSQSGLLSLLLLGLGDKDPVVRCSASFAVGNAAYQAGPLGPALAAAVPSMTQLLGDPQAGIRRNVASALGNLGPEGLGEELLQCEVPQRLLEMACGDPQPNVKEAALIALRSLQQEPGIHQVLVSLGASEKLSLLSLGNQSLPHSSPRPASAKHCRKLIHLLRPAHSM
On the procedure: as §1, §2

We go through three compounds from article PMC3445516 (PLoS ONE, 2012).

Structures are written as SMILES. Read-outs that look alike come from different tables or passages of the source. A value given as a limit tells only on which side of the number the result lay.

Regarding `Fc1ccc(-c2c(-c3ccncc3)[nH]c3nccnc23)cc1` [Compound 122], the inhibition at 10 µM at ERK8 (ERK8, 10 µM, read-out: % Competition) was found to be 98%; on AURKC (AURKC, 10 µM, read-out: % Competition) it was 86%; on p38-gamma (10 µM, read-out: % Competition), 90%; on STK36 (STK36, 10 µM, read-out: % Competition) it was 100%. For the same compound, the figures for the “% Competition” value at EGFR(G719C) and on SYK were 99% and 72%, respectively.

As to `Fc1ccc(-c2c(-c3ccncc3)[nH]c3nccnc23)cc1` [RO1155697-000-005], the inhibition at 10 µM was found to be 98% on ERK8 (ERK8, compound concentration 10 uM, read-out: Percent Competition); 86% on AURKC (AURKC, compound concentration 10 uM, read-out: Percent Competition); 90% on p38-gamma (compound concentration 10 uM, read-out: Percent Competition); 100% on STK36 (STK36, compound concentration 10 uM, read-out: Percent Competition). In addition, the “Percent Competition” value amounted to 99% on EGFR(G719C) (compound concentration 10 uM) and 72% at SYK (compound concentration 10 uM).

Turning to `CC(O)CNc1cc(-c2[nH]c3cccnc3c2-c2ccc(F)cc2)ccn1` (stereo not drawn) [Compound 140], the inhibition at 10 µM was under 50% on ERK8 (read-out: % Competition); under 50% on AURKC (read-out: % Competition); 99 to 100% on STK36 (read-out: % Competition, STK36, 10 µM). Also, the “% Competition” value is listed as 87% at EGFR(G719C), under 50% at SYK and under 50% on p38-gamma (10 µM).
